According to US20250074911A1, “MACROCYCLIC BTK INHIBITORS” (Crossfire Oncology Holding B.V., priority 2021, published 2025):

How the values were obtained:
[1] = biological target: full-length wt-BTK enzyme (Homo sapiens (Human), UniProt Q06187); assay: Biochemical kinase assay wt-BTK (IMAP)
Experimental: Biochemical kinase assay wt-BTK To determine the inhibitory activity of compounds on wt-BTK enzyme activity, the IMAP® assay (Molecular Devices) was used. […] After pre-incubation of 1 hour in the dark at room temperature, fluorescein-labeled MBP-derived substrate peptide (Molecular Devices, cat. no. RP 7123) was added, followed by ATP to start the reaction. Final enzyme concentration was 1.2 nM, final substrate concentration 50 nM, and final ATP concentration was 4 μM. The reaction was allowed to proceed for 2 hours at room temperature in the dark. The reaction was stopped by quenching with IMAP progressive binding solution according to the protocol of the manufacturer (Molecular Devices). Fluorescein polarization was measured on an Envision multimode reader (Perkin Elmer, Waltham, MA, U.S.A.). […] Results of the wt-BTK binding affinity are shown in Table 1 below. • IC50 wt-BTK: […]

[2] = biological target: full-length BTK C481S enzyme (Homo sapiens (Human), UniProt Q06187, C481S); assay: Biochemical kinase assay BTK C481S (IMAP)
Experimental: Biochemical kinase assay BTK […] To determine the inhibitory activity of compounds on BTK C481S enzyme activity, the IMAP® assay (Molecular Devices) was used. […] After pre-incubation of 1 hour in the dark at room temperature, fluorescein-labeled MBP-derived substrate peptide (Molecular Devices, cat. no. RP 7123) was added, followed by ATP to start the reaction. Final enzyme concentration was 1.2 nM final substrate concentration 50 nM, and final ATP concentration was 7 μM. The reaction was allowed to proceed for 2 hours at room temperature in the dark. The reaction was stopped by quenching with IMAP progressive binding solution according to the protocol of the manufacturer (Molecular Devices). Fluorescein polarization was measured on an Envision multimode reader (Perkin Elmer, Waltham, MA, U.S.A.). IC50 were calculated using XLfitTM5 software (ID Business Solutions, Ltd., Surrey, U.K.). Results of the BTK […] binding affinity are shown in Table 1 below. • IC50 BTK […]: […]

[3] = test system: wt-REC-1 mantle cell lymphoma cells; assay: Cell proliferation assay wt-REC-1 (ATPlite, 72 hours); assay type: cell-based; conditions: 72 h; read-out: IC50 wt-REC-1
Experimental: Results of the BTK […] binding affinity are shown in Table 1 below. • IC50 BTK […]: […] wt-REC-1 mantle cell lymphoma cells were purchased from American Type Culture Collection via Synthego Corporation (cat. no. CRL-3004, ATCC). […] Luminescence was recorded on an Envision multimode reader. The cell signal at the start of incubation was recorded separately in order to distinguish between cell population growth and cell death. In addition, maximum growth was determined by incubation of a duplicate without compound in the presence of 0.3% DMSO. Percentage growth was used as the main y-axis signal. IC50s were fitted by non-linear regression using IDBS XLfitTM5 using a 4-parameter logistic curve, yielding a maximum signal, minimum signal, hill-parameter and IC50. Results of the wt-REC-1 proliferation are shown in Table 1 below. • IC50 wt-REC-1: […]

REC-1 T474I cell lines = assay: Cell proliferation assay REC-1 BTK T474I knock-in cells (ATPlite, 72 hours); assay type: cell-based; conditions: Homo sapiens, Rec1; 72 hours; read-out: IC50 REC-1 T474I
Experimental: Cell proliferation assay Generation of BTK […] knock-in cell lines wt-REC-1 cell lines expressing mutant BTK were created at Synthego Corporation. Cell lines expressing BTK […] was generated via CRISPR/Cas9. Monoclonal REC-1 […] cell lines were obtained by single cell cloning. The mutation status of all cell lines was confirmed via sequencing. […] Luminescence was recorded on an Envision multimode reader. The cell signal at the start of incubation was recorded separately in order to distinguish between cell population growth and cell death. In addition, maximum growth was determined by incubation of a duplicate without compound in the presence of 0.3% DMSO. Percentage growth was used as the main y-axis signal.

[4] = test system: wt-TMD8 diffuse large B-cell lymphoma cells; assay: Cell proliferation assay wt-TMD8 (ATPlite, 120 hours); assay type: cell-based; conditions: B-cell; wt-TMD8 cells, 120 hours, ATPlite; read-out: IC50 wt-TMD8
Experimental: Cell proliferation assay wt-TMD8 diffuse large B-cell lymphoma cells were purchased from Tokyo Medical and Dental University and cultured in RPMI-1640 cell culture medium (cat. no. 61870036, Life Technologies), supplemented with 10% (v/v) heat-inactivated fetal bovine calf serum and 1% penicillin/[…]. 1600 cells per well (in 45 μl) were seeded in a white 384-well culture plate (cat. no. 781080, Greiner Bio-One) and allowed to rest for at least 5 hours at 37° C., 95% humidity, and 5% CO2. 5 μl compound solution was added to the cells and incubation was continued for 120 hours (5 days), followed by addition of 24 μl ATPlite 1Step™ (PerkinElmer, Groningen, The Netherlands) solution was added to each well. Luminescence was recorded on an Envision multimode reader. The cell signal at the start of incubation was recorded separately in order to distinguish between cell population growth and cell death. In addition, maximum growth was determined by incubation of a duplicate without compound in the presence of 0.3% DMSO. Percentage growth was used as the main y-axis signal.

Sequence of full-length wt-BTK enzyme (Q06187 whole entry): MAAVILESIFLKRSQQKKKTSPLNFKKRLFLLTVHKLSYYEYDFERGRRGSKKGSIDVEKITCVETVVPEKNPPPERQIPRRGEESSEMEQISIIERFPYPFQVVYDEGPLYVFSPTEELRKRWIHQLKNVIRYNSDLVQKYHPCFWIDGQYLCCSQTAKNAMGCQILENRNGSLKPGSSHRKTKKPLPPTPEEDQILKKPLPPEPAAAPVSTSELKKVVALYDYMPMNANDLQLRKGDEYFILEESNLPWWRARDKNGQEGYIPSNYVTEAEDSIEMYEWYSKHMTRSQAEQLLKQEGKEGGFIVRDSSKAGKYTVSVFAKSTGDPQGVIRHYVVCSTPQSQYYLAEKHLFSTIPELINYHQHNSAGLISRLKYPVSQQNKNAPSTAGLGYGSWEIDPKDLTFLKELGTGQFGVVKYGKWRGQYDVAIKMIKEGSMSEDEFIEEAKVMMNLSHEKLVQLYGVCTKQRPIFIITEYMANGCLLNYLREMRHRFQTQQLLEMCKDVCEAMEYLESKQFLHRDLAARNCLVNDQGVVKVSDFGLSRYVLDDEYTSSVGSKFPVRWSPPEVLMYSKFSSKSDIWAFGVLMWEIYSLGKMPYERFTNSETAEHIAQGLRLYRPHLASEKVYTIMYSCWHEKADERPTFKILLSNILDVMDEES
Sequence of full-length BTK C481S enzyme (Q06187 whole entry C481S): as the sequence (Q06187 whole entry) above, with C481S counted along it

Compound	IC50 [1]	IC50 [2]	IC50 [3]	IC50 (REC-1 T474I cell lines)	IC50 [4]
CN1C/C=C/c2cnc(N)c3c(-c4ccc(C(=O)Nc5cc(C(F)(F)F)ccn5)cc4)nn(c23)[C@@H]2CCC[C@H](C2)C(=O)NCC1 [Example 3]	< 5 nM	< 5 nM	100 to 1000 nM	500 to 10000 nM	< 100 nM
Nc1ncc2c3c1c(-c1ccc(C(=O)Nc4cc(C(F)(F)F)ccn4)cc1)nn3[C@@H]1CCC[C@H](C1)C(=O)NCC/C=C/2 [Example 4]	5 to 50 nM	5 to 50 nM	100 to 1000 nM	500 to 10000 nM	100 to 1000 nM
CN1CC/C=C/c2cnc(N)c3c(-c4ccc(C(=O)Nc5cc(C(F)(F)F)ccn5)cc4)nn(c23)[C@@H]2CCC[C@H](C2)C(=O)NCC1 [Example 5]	< 5 nM	< 5 nM	< 100 nM	100 to 500 nM	< 100 nM
Nc1ncc2c3c1c(-c1ccc(C(=O)Nc4cc(C(F)(F)F)ccn4)cc1)nn3[C@@H]1CCC[C@H](C1)NC(=O)CCCC[C@@H](O)/C=C/2 [Example 12]	< 5 nM	< 5 nM	< 100 nM	500 to 10000 nM	< 100 nM
Nc1ncc2c3c1c(-c1ccc(C(=O)Nc4cc(C(F)(F)F)ccn4)cc1)nn3[C@@H]1CCC[C@H](C1)NC(=O)CCC[C@H](O)/C=C/2 [Example 13]	< 5 nM	< 5 nM	100 to 1000 nM	500 to 10000 nM	< 100 nM
Nc1ncc2c3c1c(-c1ccc(C(=O)Nc4cc(C(F)(F)F)ccn4)cc1)nn3[C@@H]1CCC[C@H](C1)NC(=O)CCC[C@@H](O)/C=C/2 [Example 14]	< 5 nM	< 5 nM	100 to 1000 nM	500 to 10000 nM	< 100 nM
Nc1ncc2c3c1c(-c1ccc(C(=O)Nc4cc(C(F)(F)F)ccn4)cc1)nn3[C@@H]1CCC[C@H](C1)NC(=O)CCCCCC/C=C/2 [Example 16]	< 5 nM	< 5 nM	< 100 nM	< 100 nM	< 100 nM
Nc1ncc2c3c1c(-c1ccc(C(=O)Nc4ccccn4)cc1)nn3[C@@H]1CCC[C@H](C1)NC(=O)CCCC/C=C/2 [Example 23]	< 5 nM	< 5 nM	< 100 nM	100 to 500 nM	< 100 nM
Nc1ncc2c3c1c(-c1ccc(C(=O)Nc4ccccn4)cc1)nn3[C@@H]1CCC[C@H](C1)NC(=O)CCCCCC/C=C/2 [Example 29]	< 5 nM	< 5 nM	< 100 nM	100 to 500 nM	< 100 nM
CN1CC/C=C/c2cnc(N)c3c(-c4ccc(C(=O)Nc5cc(C(F)(F)F)ccn5)cc4)nn(c23)[C@@H]2CCC[C@H](C2)NC(=O)C1 [Example 30]	< 5 nM	< 5 nM	< 100 nM	100 to 500 nM	< 100 nM
Nc1ncc2c3c1c(-c1ccc(C(=O)Nc4cc(C(F)(F)F)ccn4)cc1)nn3[C@@H]1CCC[C@H](C1)NC(=O)CNCCC/C=C/2 [Example 31]	< 5 nM	< 5 nM	< 100 nM	< 100 nM	< 100 nM
Nc1ncc2c3c1c(-c1ccc(C(=O)Nc4cc(C(F)(F)F)ccn4)cc1)nn3[C@@H]1CCC[C@H](C1)NC(=O)CNCC/C=C/2 [Example 32]	< 5 nM	< 5 nM	< 100 nM	100 to 500 nM	< 100 nM
CC(=O)N1CC/C=C/c2cnc(N)c3c(-c4ccc(C(=O)Nc5cc(C(F)(F)F)ccn5)cc4)nn(c23)[C@@H]2CCC[C@H](C2)NC(=O)C1 [Example 35]	< 5 nM	< 5 nM	< 100 nM	100 to 500 nM	< 100 nM
CC(=O)N1CC/C=C/c2cnc(N)c3c(-c4ccc(C(=O)Nc5cc(C(F)(F)F)ccn5)cc4)nn(c23)[C@@H]2CCC[C@H](C2)NC(=O)CC1 [Example 36]	< 5 nM	< 5 nM	< 100 nM	100 to 500 nM	< 100 nM
